Data as given in ChEMBL document CHEMBL1201862, “PubChem BioAssay data set” (2004).
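1) Cells in 96-well plates. 2) Compound, 48 h, 5 concentrations. 3) Linear interpolation between surrounding doses. 4) Unreached endpoint = highest concentration. Abbreviation: GI50, concentration required for 50% inhibition of growth.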 Calls of active or inactive are those of the source. No stated cut-off is given here; in the data, active = GI50 up to about 1.1 µM and inactive = higher.

Legend:
Test in all cases: NCI anticancer screen, dose series, 48 h
CCRF-CEM = tested on: CCRF-CEM
NCI-H226 = tested on: NCI-H226
RPMI-8226 = tested on: RPMI-8226
OVCAR-4 = tested on: OVCAR-4
MOLT-4 = tested on: MOLT-4
Hs-578T = tested on: Hs-578T
MDA-N = tested on: MDA-N
K562 = tested on: K562
786-0 = tested on: 786-0
CAKI-1 = tested on: CAKI-1
MDA-MB-435 = tested on: MDA-MB-435
NCI-H23 = tested on: NCI-H23
NCI/ADR-RES = tested on: NCI/ADR-RES
Malme-3M = tested on: Malme-3M
A549 = tested on: A549
U-251 = tested on: U-251
SK-MEL-28 = tested on: SK-MEL-28
SK-MEL-2 = tested on: SK-MEL-2
HT-29 = tested on: HT-29
HCC 2998 = tested on: HCC 2998

Structure (SMILES): N#CC1=C(N)N(c2ccccc2)C(c2ccccc2)C1(C#N)C#N (stereo not given)
- GI50 (CCRF-CEM): 12.8 µM (inactive)
- GI50 (NCI-H226): 17.7 µM (inactive)
- GI50 (RPMI-8226): 14.8 µM (inactive)
- GI50 (OVCAR-4): 19.6 µM (inactive)
- GI50 (MOLT-4): 12.3 µM (inactive)
- GI50 (Hs-578T): 30 µM (inactive)
- GI50 (MDA-N): 19.3 µM (inactive)
- GI50 (K562): 6.05 µM (inactive)
- GI50 (786-0): 17.5 µM (inactive)
- GI50 (CAKI-1): 20.9 µM (inactive)
- GI50 (MDA-MB-435): 18.8 µM (inactive)
- GI50 (NCI-H23): 20.8 µM (inactive)
- GI50 (NCI/ADR-RES): 20.3 µM (inactive)
- GI50 (Malme-3M): 17.6 µM (inactive)
- GI50 (A549): 17.8 µM (inactive)
- GI50 (U-251): 17.1 µM (inactive)
- GI50 (SK-MEL-28): 16.7 µM (inactive)
- GI50 (SK-MEL-2): 16.4 µM (inactive)
- GI50 (HT-29): 15.7 µM (inactive)
- GI50 (HCC 2998): 16.4 µM (inactive)

Structure (SMILES): CCCNCC(O)CNc1ccc(NCC(O)CNCCC)c2c1C(=O)c1ccccc1C2=O (stereo not given)
- GI50 (CCRF-CEM): 0.998 µM (active)
- GI50 (NCI-H226): 2 µM (inactive)
- GI50 (RPMI-8226): 1.69 µM (inactive)
- GI50 (OVCAR-4): 3.07 µM (inactive)
- GI50 (MOLT-4): 1.26 µM (inactive)
- GI50 (Hs-578T): 3.61 µM (inactive)
- GI50 (MDA-N): 2.74 µM (inactive)
- GI50 (K562): 2.14 µM (inactive)
- GI50 (786-0): 2.03 µM (inactive)
- GI50 (CAKI-1): 12.6 µM (inactive)
- GI50 (MDA-MB-435): 2.81 µM (inactive)
- GI50 (NCI-H23): 3.24 µM (inactive)
- GI50 (NCI/ADR-RES): > 75 µM (inactive)
- GI50 (Malme-3M): 2.7 µM (inactive)
- GI50 (A549): 1.81 µM (inactive)
- GI50 (U-251): 2.57 µM (inactive)
- GI50 (SK-MEL-28): 2.96 µM (inactive)
- GI50 (SK-MEL-2): 2.16 µM (inactive)
- GI50 (HT-29): 2.17 µM (inactive)
- GI50 (HCC 2998): 1.38 µM (inactive)

Structure (SMILES): COC(=O)CCC1=NCC(C)(C)O1
- GI50 (CCRF-CEM): > 10 µM (inactive)
- GI50 (NCI-H226): > 10 µM (inactive)
- GI50 (RPMI-8226): > 10 µM (inactive)
- GI50 (OVCAR-4): > 10 µM (inactive)
- GI50 (MOLT-4): > 10 µM (inactive)
- GI50 (Hs-578T): > 10 µM (inactive)
- GI50 (MDA-N): > 10 µM (inactive)
- GI50 (K562): 0.182 µM (active)
- GI50 (786-0): > 10 µM (inactive)
- GI50 (CAKI-1): > 10 µM (inactive)
- GI50 (MDA-MB-435): > 10 µM (inactive)
- GI50 (NCI-H23): > 10 µM (inactive)
- GI50 (NCI/ADR-RES): > 10 µM (inactive)
- GI50 (Malme-3M): > 10 µM (inactive)
- GI50 (A549): > 10 µM (inactive)
- GI50 (U-251): > 10 µM (inactive)
- GI50 (SK-MEL-28): > 10 µM (inactive)
- GI50 (SK-MEL-2): > 10 µM (inactive)
- GI50 (HT-29): > 10 µM (inactive)
- GI50 (HCC 2998): > 10 µM (inactive)

Structure (SMILES): C/C(=C\COc1ccc2ccc(=O)oc2c1)C1=CC(=O)C(C)(C)O1 [GEIPARVARIN]
- GI50 (CCRF-CEM): 1.51 µM (inactive)
- GI50 (NCI-H226): 3.32 µM (inactive)
- GI50 (RPMI-8226): 2.04 µM (inactive)
- GI50 (OVCAR-4): 3.08 µM (inactive)
- GI50 (MOLT-4): 4.14 µM (inactive)
- GI50 (Hs-578T): 2.51 µM (inactive)
- GI50 (MDA-N): 3.28 µM (inactive)
- GI50 (K562): 4.39 µM (inactive)
- GI50 (786-0): 3.74 µM (inactive)
- GI50 (CAKI-1): 4.83 µM (inactive)
- GI50 (MDA-MB-435): 3.48 µM (inactive)
- GI50 (NCI-H23): 3.29 µM (inactive)
- GI50 (NCI/ADR-RES): 2.64 µM (inactive)
- GI50 (Malme-3M): 5.58 µM (inactive)
- GI50 (A549): 7.67 µM (inactive)
- GI50 (U-251): 4.3 µM (inactive)
- GI50 (SK-MEL-28): 4.23 µM (inactive)
- GI50 (SK-MEL-2): 3.66 µM (inactive)
- GI50 (HT-29): 4.01 µM (inactive)
- GI50 (HCC 2998): 3.94 µM (inactive)
